One experiment deals with CD4+ T cells. Briefly: Immunological screening in vitro in CD4+ T cells (flow cytometry). The conditions noted are these: for significance of change in IFNγ/TNFα production relative to vehicle treated control: tested at 100 nM and 1 μM, P<0.05; for reduction in IFNγ production: 24 h, anti-CD3/CD28, PMA/ionomycin last 6 h. The class given is cell-based, C57BL/6 mice. The source says:
(§1) Cell culture. Spleens were excised from C57BL/6 mice. Spleens were crushed between the frosted ends of microscope slides and filtered to provide a cellular suspension. Red blood cells were lysed through hypotonic lysis. Remaining cells were washed and filtered. CD4+ T cells were enriched within the suspension using magnetic sorting based negative selection. Cells were collected and plated within 96 well plates coated with anti-CD3/CD28 and cultured in the presence of PX-02, PX-04, PX-07, PX-08 and PX-09 at 0, 0.1 or 1 micromolar for 24 h. During the last 6 h of culture, cells were stimulated with phorbol 12-myristate-13-acetate (PMA) and ionomycin.
(§2) Immunological analysis. Cells were collected from 96 well plates and stained with a cocktail of antibodies for immunophenotyping by flow cytometry. Culture supernatant was collected and assayed for cytokine concentrations by cytometric bead array. Data was captured on a BD FACS Celesta and analyzed using FACSDiva.

For experiment [1], the system named is bone marrow-derived macrophages (BMDMs). Briefly: Immunological screening in vitro in LPS-challenged bone marrow-derived macrophages (qRT-PCR, Luminex). The class given is cell-based, C57BL/6 mice. As to conditions: 0.1 and 1 micromolar, dose dependent; for IFNγ in the supernatant / IL-6 in the supernatant / TNF in the supernatant / concentration of IL-10 in the supernatant: Luminex, LPS 6 h; for IL-10 expression by RNA / expression of TNF by RNA: qRT-PCR, LPS 2 h. The procedure: Cell culture. Bone marrow was flushed from the femur and tibia of C57BL/6 mice. Bone marrow was then resuspended and filtered to provide a cellular suspension. Red blood cells were lysed through hypotonic lysis. Remaining cells were washed and filtered. Isolated cells were incubated in the presence of M-CSF for 7 days to differentiate cells into macrophages. Cells were harvested, plated within 24 well plates and cultured in the presence of PX-04 or PX-07 at 0, 0.1 or 1 micromolar for 12 h. During the last 2-6 h of culture, cells were stimulated with lipopolysaccharide. After stimulation for 2 h, cells were collected for the isolation of RNA. Gene expression was quantified by qRT-PCR. After stimulation for 6 h, supernatant was collected for detection of cytokines by Luminex.

A further experiment deals with NZB/W F1 mice. Description: NZB/W F1 model of SLE. The conditions noted are these: 10 mg/kg daily oral. The class given is in vivo. On the procedure:
NZB/W F1 model. Twenty-four-week-old, female NZB/W F1 mice were randomized into vehicle or PX-04 treated arms based on baseline urine protein levels (n ═10). PX-04 was administered daily at 10 mg/kg for 12 weeks. Mice will be weighed on a weekly basis to update dosage formulation. Dosage will be calculated based off mean body weights.
Immunological analysis. Urine was collected for assay for protein content to test for kidney function at baseline, 6, and 12 weeks of treatment. Spleens were excised, crushed and filtered to provide a cellular suspension. Red blood cells were lysed. Cells were labeled with mixtures of extracellular (CD45, CD3, CD4) and intracellular (IL10) antibodies in a sequential live staining in 96-well plates in preparation for flow cytometry. Data was captured on a BD FACS Celesta and analyzed using FACSDiva.

The subject of experiment [2] is CD4+ T cells deficient in PLXDC2. Description: Specificity test in PLXDC2 deficient CD4+ T cells. In kind it is cell-based. As to conditions: 100 nM or 1 μM; for IFNγ in the absence of PLXDC2: FIG. 4A; for TNFα in the absence of PLXDC2: FIG. 4B. The procedure:
FIGS. 4A and 4B. Immunological validation of PX-04 and PX-07 specificity in CD4+ T cells. Percentages of IFNγ+(FIG. 4A) and TNFα+ (FIG. 4B) CD4+ T cells deficient in PLXDC2 were measured by flow cytometry after in vitro treatment of cells with PX compounds at concentrations of 0.1 and 1 micromolar. Statistical significance (P<0.05) is marked by asterisks.
as §1, §2
To determine the specificity of response to the PLXDC2 receptor, PX-04 and PX-07 were tested further in PLXDC2 deficient cells.

The test system of experiment [3] is DBA/2 mice injected with STZ. Briefly: STZ model of diabetic nephropathy. The class given is in vivo. The conditions noted are these: daily oral gavage; for albumin/creatinine ratio in urine: 12 weeks of treatment. The procedure:
STZ models. Streptozotocin (STZ) can be used to induce diabetes in both rats and mice. Mice were used for the assessment of nephropathy. DBA/2 mice were injected with 40 mg/kg STZ by intraperitoneal injection for 5 consecutive days. Mice were randomized to vehicle- or PX-04-treated arms after confirmation of diabetes on day 10 (n=12). PX-04 was administered daily for 12 weeks by oral gavage after a damage accrual stage. Separately, mice were randomized to vehicle- or PX-07-treated arms after confirmation of diabetes on day 10 (n=8). PX-07 was administered daily for 12 weeks by oral gavage after a damage accrual stage.
Kidney function. Kidney function was assessed by collection of urine and histological assessment of kidneys. Urine was assayed for albumin/creatinine ratio. Kidneys were scored using a composite scoring method (0-9) encompassing glomerular area, mesangial expansion, and renal fibrosis.

A further experiment deals with mice challenged with DSS. Briefly: DSS model of colitis (acute IBD model). In kind it is in vivo. On the procedure: DSS model. Mice were given DSS in drinking water for seven days to induce disruption of the epithelial layer. At project initiation, mice were 8 weeks of age and began dosing 24 hours after being placed on DSS. Mice were weighed and scored daily for symptoms of disease (diarrhea, rectal bleeding, rectal inflammation, overall behavior). PX-04 was prepared within a 0.5% methylcellulose (12-15 cP) solution. Dosage used was 20 mg/kg delivered once daily. Dosage was calculated based off mean body weights for each gender. Oral dosage was delivered by orogastric gavage of dosage in 0.2 mL volume. Flow Cytometry. Colons were collected into RPMI/FBS buffer containing collagenase (300 U/mL) and DNase (50 U/mL) for digestion. Tissues were digested for 60 minutes under stirring at 37° C. Resultant cellular suspensions were filtered through 100 μm strainers, centrifuged (300×g, 8 min), and washed in fresh RPMI. Following filtration of the resulting single cell suspensions, immune cells were purified by Percoll gradient of cell-containing 40% Percoll overlayed onto 70% Percoll solution. After centrifugation, interphase was collected and washed to obtain enriched colonic lamina propria cell fractions. Cells were labeled with mixtures of extracellular (CD45, CD3, CD4, CD8, CD19, NK1.1, CD25, F4/80, CD11b, Gr1, CX3CR1, CD64) and intracellular (Tbet, RORγT, FOXP3, IFNγ, IL17, IL10) antibodies in a sequential live staining in 96-well plates. Data was acquired using a FACS Celesta flow cytometer with FACSDiva software.

For experiment [4], the system named is rats with collagen-induced arthritis. Briefly: Collagen-induced arthritis in rats. In kind it is in vivo, Lewis rats. The procedure:
(§3) Models. Six-week-old C57Bl/6 mice were immunized with 200 μg of chicken collagen emulsified in complete Freund's adjuvant by intradermal injections at the base of the tail (n=8). Mice were treated with 5 mg/kg of PX-07 or vehicle daily for four weeks. Five- to six-week-old Lewis rats (n=8) were immunized with 200 μg of bovine collagen emulsified in incomplete Freund's adjuvant by intradermal injection into the base of the tail. A second boosting immunization was given after one week. PX-04 was administered daily at 2 or 20 mg/kg for 3 weeks.
(§4) Immunological analysis. Spleens were excised from mice and inguinal lymph nodes were excised from rats. Tissues were crushed and filtered to provide a cellular suspension. Red blood cells were lysed. Cells were labeled with mixtures of extracellular (CD45, CD3, CD4, CD8, B220, CD19, CD138, CD21, CD24, CD1d, CD11b, CD86, CD80) and intracellular (BCL6, IL21, IL10, TNF) antibodies in a sequential live staining in 96-well plates in preparation for flow cytometry. Data was captured on a BD FACS Celesta and analyzed using FACSDiva.

The subject of experiment [5] is mice with collagen-induced arthritis. Briefly: Collagen-induced arthritis in mice. As to conditions: 5 mg/kg daily oral, four weeks. In kind it is in vivo, C57Bl/6 mice. The procedure:
as §3, §4

Where [6] appears, read: 20 mg/kg oral, colonic lamina propria, day 7.
[7] abbreviates: 2 and 20 mg/kg daily oral, 3 weeks, relative to vehicle.

As to `O=C(Nc1ccccc1)c1nc(-c2cccc(Oc3ccccc3)c2)c[nH]1` [PX-02, N-Phenyl-4-(m-phenoxyphenyl)-1H-imidazole-2-carboxamide], the “significance of change in IFNγ/TNFα production relative to vehicle treated control” value in the experiment with CD4+ T cells is “only induced significant changes at 1 μM”.
As for `O=C(Nc1ccc2c(c1)COC2)c1ncc(-c2cccc(Oc3ccccc3)c2)[nH]1` [PX-04, N-(1,3-Dihydro-5-isobenzofuranyl)-5-(m-phenoxyphenyl)-1H-imidazole-2-carboxamide], the “reduction in IFNγ production” value in the experiment with CD4+ T cells (100 nM) is ~55%. Further, the “reduction in IFNγ production” value with CD4+ T cells (1 μM) is on record as ~80%. Also, the “significance of change in IFNγ/TNFα production relative to vehicle treated control” value in the experiment with CD4+ T cells is reported as “significant decrease at both tested concentrations”. Further, in experiment [1], the “IFNγ in the supernatant” value is reported as “greatly suppressed”, the “IL-6 in the supernatant” value was “greatly suppressed”, the “TNF in the supernatant” value is given as “greatly suppressed” and the “concentration of IL-10 in the supernatant” value was “higher”. In experiment [1], the “IL-10 expression by RNA” value was “slight increase” and the “expression of TNF by RNA” value is “inhibited”. In addition, in the experiment with NZB/W F1 mice (after 12 weeks), the “proportion of splenic CD4+IL10+ T cells relative to vehicle-treated mice” value is listed as “increased proportion”. The “proteinuria relative to baseline on average” value in the experiment with NZB/W F1 mice (at 12 weeks of treatment) was “slight improvement”. In the experiment with NZB/W F1 mice (over 12 weeks), the proteinuria grade entry is given as “protected mice from the worsening”. In experiment [2], the “IFNγ in the absence of PLXDC2” value was “no difference from vehicle” and the “TNFα in the absence of PLXDC2” value was “no difference from vehicle”. Besides, the “albumin/creatinine ratio in urine” value in experiment [3] was “significantly reduced”. In the experiment on mice challenged with DSS (20 mg/kg once daily oral gavage, 7 days of DSS), the cumulative disease activity entry is reported as “decreased”. In addition, in the experiment on mice challenged with DSS (setting [6]), the “Th17 cells in the colon” value was “greatly decreased”, the “proportion of CD4+ T cells with IFNγ production” value is on record as “lower proportion”, the “proportion of NK cells with IFNγ production” value is listed as “lower proportion” and the “proportion of TNF producing dendritic cells” value is “decreased”. For the same compound, the “regulatory CD4+ T cells in the colon” value with mice challenged with DSS (setting [6]) is recorded as “slight increase”. Further, in experiment [4] (2 mg/kg oral, relative to vehicle), the “histological severity of disease in hind ankles (joint space, cartilage erosion, leukocytic infiltration, angiogenesis)” value is reported as “reduced severity of disease”. In experiment [4] (setting [7]), the “gene expression of CXCL1 within the synovium” value is “reduced”, the “gene expression of IL-1β within the synovium” value is “reduced” and the “gene expression of IL-6 within the synovium” value is reported as “reduced”. In addition, in experiment [4] (daily oral gavage, 3 weeks), the “ratio of TNF+ to IL10+ cells within CD4+ T cell fraction, inguinal lymph node” value was “decreased” and the “ratio of TNF+ to IL10+ cells within myeloid cell fraction, inguinal lymph node” value is reported as “decreased”.
`Cn1cccc(NC(=O)c2ncc(-c3cccc(Oc4ccccc4)c3)[nH]2)c1=O` [PX-07, N-(1-Methyl-2-oxo-1H-pyrid-3-yl)-5-(m-phenoxyphenyl)-1H-imidazole-2-carboxamide]: the “reduction in IFNγ production” value in the experiment with CD4+ T cells (100 nM) is recorded as ~55%. Moreover, the “reduction in IFNγ production” value in the experiment on CD4+ T cells (1 μM) is listed as ~80%. In addition, the “significance of change in IFNγ/TNFα production relative to vehicle treated control” value in the experiment with CD4+ T cells is recorded as “significant decrease at both tested concentrations”. In addition, in experiment [1], the “IFNγ in the supernatant” value is “greatly suppressed”, the “IL-6 in the supernatant” value is reported as “greatly suppressed”, the “TNF in the supernatant” value is recorded as “greatly suppressed” and the “concentration of IL-10 in the supernatant” value is on record as “higher”. Further, in experiment [1], the “IL-10 expression by RNA” value was “slight increase” and the “expression of TNF by RNA” value was “inhibited”. In addition, in experiment [2], the “IFNγ in the absence of PLXDC2” value is “no difference from vehicle” and the “TNFα in the absence of PLXDC2” value is “no difference from vehicle”. In addition, the “albumin/creatinine ratio in urine” value in experiment [3] was “significantly reduced”. Moreover, in experiment [3] (after 12 weeks of treatment), the “histological score of kidney damage (composite 0-9)” value is “significantly reduced”. Further, in experiment [5], the “proportion of CD1d+T2-MZP B cells in the spleen” value is “increased” and the “proportion of T follicular helper cells (CD4+IL21+BCL6+) in the spleen” value is reported as “decreased”.
Turning to `O=C(Nc1ccc[nH]c1=O)c1ncc(-c2cccc(Oc3ccccc3)c2)[nH]1` [PX-08, N-(2-Oxo-1H-pyrid-3-yl)-5-(m-phenoxyphenyl)-1H-imidazole-2-carboxamide], the “significance of change in IFNγ/TNFα production relative to vehicle treated control” value in the experiment with CD4+ T cells is listed as “significant decrease at both tested concentrations”.
Regarding `O=C(O)c1cccc(NC(=O)c2ncc(-c3cccc(Oc4ccccc4)c3)[nH]2)c1` [PX-09, m-[5-(m-Phenoxyphenyl)-1H-imidazol-2-ylcarbonylamino]benzoic acid], the “significance of change in IFNγ/TNFα production relative to vehicle treated control” value in the experiment on CD4+ T cells was “significant decrease at both tested concentrations”.

These data come from patent US11597717B2, “Substituted imidazoles as PLXDC2 ligands” (Landos Biopharma, Inc., priority 2020, dated 2023).
